This is an account of results in patent publication US10077261B2, “Imidazolin-5-one derivative useful as FASN inhibitors for the treatment of cancer” (Janssen Pharmaceutica NV, priority 2012, dated 2018).

The structures appear in SMILES notation.

A word on the inhibition: it is the relative decrease from the control value, in per cent.

The subject of assay [1] is A2780 ovarian cells. The assay can be described thus: A2780 ovarian cell proliferation assay in lipid reduced medium, with palmitate (MTT). The format is cell-based. Particulars: Homo sapiens, A2780, 96 h; read-out: pIC50 A2780 Ovarian Cell, With Palmitate (converted). The procedure, abridged:
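In this palmitate-supplemented format, compound dilutions (30 μM down to 0.01 μM) are added to cells in lipid-reduced serum with 25 μM palmitate, 0.2% fatty-acid-free BSA and 0.25% ethanol. After four days (96 h) MTT absorbance at 544 nm is recorded and fitted by minimum sum of squares.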

The test system of assay [2] is PC-3M-Luc-C6 prostate cells. The assay can be described thus: In vitro PC-3M-Luc-C6 prostate cell proliferation assay in lipid reduced medium. In kind it is cell-based. The note with it: 96 h, read-out: pIC50 PC-3M-Luc-C6 prostate cell (converted).
The target in assay [3] is T1, hFASN enzyme (full length) (Homo sapiens, UniProt P49327).
T1 construct: 10 μL hFASN enzyme (full length, 300 ng, purified in house); made in house
T1 sequence (P49327 whole entry): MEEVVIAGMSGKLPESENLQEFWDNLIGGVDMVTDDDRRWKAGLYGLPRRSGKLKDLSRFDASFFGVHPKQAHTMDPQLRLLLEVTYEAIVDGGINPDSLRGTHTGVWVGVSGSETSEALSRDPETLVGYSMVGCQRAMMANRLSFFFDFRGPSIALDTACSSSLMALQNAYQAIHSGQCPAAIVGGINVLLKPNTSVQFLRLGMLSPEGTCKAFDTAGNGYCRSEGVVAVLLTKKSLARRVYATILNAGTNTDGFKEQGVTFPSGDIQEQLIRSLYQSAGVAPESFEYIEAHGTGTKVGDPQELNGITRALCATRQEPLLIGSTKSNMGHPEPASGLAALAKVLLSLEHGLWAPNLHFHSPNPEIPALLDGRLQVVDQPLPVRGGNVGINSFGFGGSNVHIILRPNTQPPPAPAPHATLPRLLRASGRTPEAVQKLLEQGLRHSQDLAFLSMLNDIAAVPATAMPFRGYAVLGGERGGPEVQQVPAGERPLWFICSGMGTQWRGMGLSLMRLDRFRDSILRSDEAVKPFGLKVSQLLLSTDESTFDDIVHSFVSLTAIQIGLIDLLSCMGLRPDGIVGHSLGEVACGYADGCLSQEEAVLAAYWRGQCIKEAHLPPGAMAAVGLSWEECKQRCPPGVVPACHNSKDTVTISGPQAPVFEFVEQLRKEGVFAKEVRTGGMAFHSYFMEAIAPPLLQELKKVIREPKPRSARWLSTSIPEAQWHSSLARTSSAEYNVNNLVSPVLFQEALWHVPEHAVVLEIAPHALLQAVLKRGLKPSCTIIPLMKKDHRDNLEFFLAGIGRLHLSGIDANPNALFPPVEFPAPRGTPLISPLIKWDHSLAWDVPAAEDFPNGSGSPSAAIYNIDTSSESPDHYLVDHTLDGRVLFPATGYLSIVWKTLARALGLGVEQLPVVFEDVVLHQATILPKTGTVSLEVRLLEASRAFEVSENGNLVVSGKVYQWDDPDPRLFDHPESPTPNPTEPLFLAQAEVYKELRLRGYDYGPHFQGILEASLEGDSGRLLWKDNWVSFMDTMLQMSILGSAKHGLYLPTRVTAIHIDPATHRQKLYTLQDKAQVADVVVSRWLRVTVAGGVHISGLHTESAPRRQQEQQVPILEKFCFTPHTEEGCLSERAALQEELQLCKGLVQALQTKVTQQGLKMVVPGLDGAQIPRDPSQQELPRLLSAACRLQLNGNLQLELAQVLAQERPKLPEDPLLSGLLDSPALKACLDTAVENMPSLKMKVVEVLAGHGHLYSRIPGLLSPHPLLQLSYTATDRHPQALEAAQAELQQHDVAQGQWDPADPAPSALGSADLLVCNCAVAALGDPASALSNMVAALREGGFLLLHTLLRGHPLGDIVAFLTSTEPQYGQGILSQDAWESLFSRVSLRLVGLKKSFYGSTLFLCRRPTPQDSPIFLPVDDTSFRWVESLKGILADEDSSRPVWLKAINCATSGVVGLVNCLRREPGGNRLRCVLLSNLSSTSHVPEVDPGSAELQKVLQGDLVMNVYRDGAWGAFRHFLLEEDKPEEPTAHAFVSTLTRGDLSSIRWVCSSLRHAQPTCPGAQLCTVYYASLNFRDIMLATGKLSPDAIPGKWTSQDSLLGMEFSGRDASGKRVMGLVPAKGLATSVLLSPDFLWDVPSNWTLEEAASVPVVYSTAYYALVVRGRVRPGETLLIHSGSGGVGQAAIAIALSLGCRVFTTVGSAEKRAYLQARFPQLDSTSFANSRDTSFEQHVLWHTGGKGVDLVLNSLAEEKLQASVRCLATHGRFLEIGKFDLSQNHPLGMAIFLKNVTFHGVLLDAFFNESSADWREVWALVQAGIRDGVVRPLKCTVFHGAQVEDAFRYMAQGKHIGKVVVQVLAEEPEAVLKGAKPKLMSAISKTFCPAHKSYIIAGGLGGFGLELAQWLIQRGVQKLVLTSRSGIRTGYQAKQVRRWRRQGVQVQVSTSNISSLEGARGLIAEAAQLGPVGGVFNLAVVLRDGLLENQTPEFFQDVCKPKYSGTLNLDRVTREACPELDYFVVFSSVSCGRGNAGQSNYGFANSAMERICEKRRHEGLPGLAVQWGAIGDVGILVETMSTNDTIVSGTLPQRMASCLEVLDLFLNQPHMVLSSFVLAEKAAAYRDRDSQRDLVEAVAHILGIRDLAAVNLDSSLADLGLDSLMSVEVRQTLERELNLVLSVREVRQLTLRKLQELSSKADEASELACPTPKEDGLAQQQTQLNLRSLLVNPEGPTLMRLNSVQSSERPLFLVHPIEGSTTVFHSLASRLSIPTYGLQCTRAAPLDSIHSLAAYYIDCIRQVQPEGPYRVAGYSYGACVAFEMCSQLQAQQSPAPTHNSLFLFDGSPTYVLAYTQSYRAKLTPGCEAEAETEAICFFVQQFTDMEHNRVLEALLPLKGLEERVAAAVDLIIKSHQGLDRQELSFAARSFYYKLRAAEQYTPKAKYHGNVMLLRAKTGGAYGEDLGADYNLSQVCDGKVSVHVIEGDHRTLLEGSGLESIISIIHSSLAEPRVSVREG
The assay can be described thus: Fatty Acid Synthase (FASN) inhibition scintillation proximity assay. The format is biochemical. The note with it: for inhibition at 10 µM: read-out: Human FASN % inhibition @ 10 μM, 10 μM test compound; for IC50: read-out: Human FASN pIC50 (converted). The procedure, abridged:
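Read-out relies on hydrophobic ³H-palmitate product, formed from ³H-acetyl-CoA and malonyl-CoA, binding streptavidin imaging beads, measured at 610±20 nm after at least 24 h. Full-length enzyme (300 ng) in phosphate buffer pH 7.5 with DTT; eight compound concentrations, 0.01–30 μM.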
Background: SPA uses beads or plates that emit light when radiolabelled molecules are held near them.

Assay [4] deals with Fatty Acid Synthase Keto-reductase Domain (FASN KR) (Homo sapiens, UniProt P49327). The assay can be described thus: Fatty Acid Synthase keto-reductase domain (FASN KR) inhibition, NADPH oxidation at 340 nm.
Sequence of Fatty Acid Synthase Keto-reductase Domain (FASN KR) (P49327 whole entry, the tested form may be a part): as the sequence (P49327 whole entry) above
Description: After 20 minutes incubation at room temperature the plate was measured again (T2).
The decrease in absorbance was calculated as (Absorbance before incubation T1)−(Absorbance following incubation T2).
A plot of Controlmin versus test compound concentration was fitted to a 4-parameter logistic curve using a non-linear least squares regression method.
Assay [5] deals with A2780 ovarian cells. The assay can be described thus: A2780 ovarian cell proliferation assay in lipid reduced medium, without palmitate (MTT). The format is cell-based. Particulars: Homo sapiens, A2780, 96 h; read-out: pIC50 A2780 Ovarian Cell, Without Palmitate (converted).
Assay [6] relates to LNCaP-Vancouver prostate cells. The assay can be described thus: In vitro LNCaP Vancouver prostate cell proliferation assay in lipid reduced medium. The note with it: read-out: pIC50 LNCaP_Vancouver prostate cell (converted). The format is cell-based.

For the molecule `COc1ccc2ccc(-c3ccc(C4=NC5(CC5)C(=O)N4CC4CN(C(=O)C5CC5)C4)c(F)c3)cc2c1` [compound 618, 6-{[1-(Cyclopropylcarbonyl)azetidin-3-yl]methyl}-5-[2-fluoro-4-(7-methoxynaphthalen-2-yl)phenyl]-4,6-diazaspiro[2.4]hept-4-en-7-one], the IC50 with A2780 ovarian cells [1] is above 10000 nM; in assay [2], around 2570 nM; in assay [3], 229 nM; in assay [4], 1120 nM; in the assay with A2780 ovarian cells [5], 794 nM; in assay [6] it was 3470 nM. Besides, in assay [3], the inhibition at 10 µM turned out to be 98%.

On to `O=C(C1CC1)N1CC(CN2C(=O)C3(CC3)N=C2c2ccc(-c3cccc(NS(=O)(=O)C4CC4)c3)cc2F)C1` [compound 619, N-[4′-(6-{[1-(Cyclopropylcarbonyl)azetidin-3-yl]methyl}-7-oxo-4,6-diazaspiro[2.4]hept-4-en-5-yl)-3′-fluorobiphenyl-3-yl]cyclopropanesulfonamide], for which the IC50 was above 10000 nM in the assay with A2780 ovarian cells [1]; 631 nM in assay [2]; 186 nM in assay [3]; 380 nM in assay [4]; around 224 nM with A2780 ovarian cells [5]; 3240 nM in assay [6]. Besides, the inhibition at 10 µM in assay [3] came to 101%.

Consider `N#Cc1ccc2ccc(-c3ccc(C4=NC5(CC5)C(=O)N4CC4CN(C(=O)C5(O)CC5)C4)c(F)c3)cc2c1` [compound 621, 7-{3-Fluoro-4-[6-({1-[(1-hydroxycyclopropyl)carbonyl]azetidin-3-yl}methyl)-7-oxo-4,6-diazaspiro[2.4]hept-4-en-5-yl]phenyl}naphthalene-2-carbonitrile], for which the IC50 in the assay with A2780 ovarian cells [1] was 6170 nM; in assay [2] it was 437 nM; in assay [3], 617 nM; in assay [4] it was 513 nM; in the assay on A2780 ovarian cells [5], 708 nM; in assay [6] it was 2140 nM. Further, the inhibition at 10 µM in assay [3] came out at 92%.

As to `Cc1cc(-c2ccc(-c3ccnn3C)cc2)ccc1C1=NC2(CC2)C(=O)N1C[C@@H]1CCN(C(=O)C2(C)CC2)C1` [compound 623, 6-({(3R)-1-[(1-Methylcyclopropyl)carbonyl]pyrrolidin-3-yl}methyl)-5-[3-methyl-4′-(1-methyl-1H-pyrazol-5-yl)biphenyl-4-yl]-4,6-diazaspiro[2.4]hept-4-en-7-one], the IC50 with A2780 ovarian cells [1] is 5130 nM; in assay [2], 123 nM; in assay [3] it was 145 nM; in assay [4] it was 234 nM; in the assay with A2780 ovarian cells [5], around 32.4 nM; in assay [6], 562 nM. Further, in assay [3], the inhibition at 10 µM came to 101%.

Regarding `Cc1cc(-c2ccc3c(c2)ncn3C)ccc1C1=NC2(CC2)C(=O)N1CC1CN(C(=O)C2(C)CC2)C1` [compound 627, 6-({1-[(1-Methylcyclopropyl)carbonyl]azetidin-3-yl}methyl)-5-[2-methyl-4-(1-methyl-1H-benzimidazol-5-yl)phenyl]-4,6-diazaspiro[2.4]hept-4-en-7-one], the IC50 with A2780 ovarian cells [1] was above 10000 nM; in assay [2], 47.9 nM; in assay [3], 107 nM; in assay [4] it was 126 nM; in the assay with A2780 ovarian cells [5], 12 nM; in assay [6] it was around 129 nM. In addition, the inhibition at 10 µM in assay [3] was determined as 105%.

`COc1cccc2cc(-c3ccc(C4=NC5(CC5)C(=O)N4CC4CN(C(=O)C5CC5)C4)c(F)c3)ccc12` [compound 635, 6-{[1-(Cyclopropylcarbonyl)azetidin-3-yl]methyl}-5-[2-fluoro-4-(5-methoxynaphthalen-2-yl)phenyl]-4,6-diazaspiro[2.4]hept-4-en-7-one]: the IC50 was above 10000 nM in the assay on A2780 ovarian cells [1]; 355 nM in assay [2]; 219 nM in assay [3]; 1350 nM in assay [4]; 129 nM in the assay with A2780 ovarian cells [5]; 1020 nM in assay [6]. Further, in assay [3], the inhibition at 10 µM is 97%.

As to `Cn1ncc2cc(-c3ccc(C4=NC5(CC5)C(=O)N4CC4CN(C(=O)C5(F)CC5)C4)c(F)c3)ccc21` [compound 637, 6-({1-[(1-Fluorocyclopropyl)carbonyl]azetidin-3-yl}methyl)-5-[2-fluoro-4-(1-methyl-1H-indazol-5-yl)phenyl]-4,6-diazaspiro[2.4]hept-4-en-7-one], the IC50 was above 10000 nM with A2780 ovarian cells [1]; around 234 nM in assay [2]; 120 nM in assay [3]; 871 nM in assay [4]; 85.1 nM with A2780 ovarian cells [5]; 1820 nM in assay [6]. Further, the inhibition at 10 µM in assay [3] worked out at 99%.

With `O=C(C1CC1)N1CC(CN2C(=O)C3(CC3)N=C2c2ccc(-c3nc4cc(F)ccc4s3)cc2F)C1` [compound 638, 6-{[1-(Cyclopropylcarbonyl)azetidin-3-yl]methyl}-5-[2-fluoro-4-(5-fluoro-1,3-benzothiazol-2-yl)phenyl]-4,6-diazaspiro[2.4]hept-4-en-7-one], the IC50 in the assay on A2780 ovarian cells [1] was above 10000 nM; in assay [2], 479 nM; in assay [3], 191 nM; in assay [4] it was 1000 nM; in the assay on A2780 ovarian cells [5], around 195 nM; in assay [6] it was 1700 nM. The inhibition at 10 µM in assay [3] worked out at 100%.

Regarding `O=C(C1CC1)N1CC(CN2C(=O)C3(CC3)N=C2c2ccc(-c3nc4cc(F)c(F)cc4s3)cc2F)C1` [compound 639, 6-{[1-(Cyclopropylcarbonyl)azetidin-3-yl]methyl}-5-[4-(5,6-difluoro-1,3-benzothiazol-2-yl)-2-fluorophenyl]-4,6-diazaspiro[2.4]hept-4-en-7-one], the IC50 is above 10000 nM in the assay with A2780 ovarian cells [1]; 794 nM in assay [2]; 282 nM in assay [3]; 1450 nM in assay [4]; around 363 nM with A2780 ovarian cells [5]; 2340 nM in assay [6]. The inhibition at 10 µM in assay [3] is 97%.

Consider `O=C(C1CC1)N1CC(CN2C(=O)C3(CC3)N=C2c2ccc(-c3cccc(SC4CC4)c3)cc2F)C1` [compound 645, 6-{[1-(Cyclopropylcarbonyl)azetidin-3-yl]methyl}-5-[3′-(cyclopropylsulfanyl)-3-fluorobiphenyl-4-yl]-4,6-diazaspiro[2.4]hept-4-en-7-one], for which the IC50 with A2780 ovarian cells [1] is above 10000 nM; in assay [2] it was 1740 nM; in assay [3], 275 nM; in assay [4] it was 676 nM; in the assay with A2780 ovarian cells [5] it was around 2040 nM; in assay [6], 3470 nM. Further, the inhibition at 10 µM in assay [3] came to 100%.

Consider `O=C(C1CC1)N1CC[C@@H](CN2C(=O)C3(CC3)N=C2c2ccc(-c3cccc(S(=O)(=O)C4CC4)c3)cc2F)C1` [compound 647, 6-{[(3R)-1-(Cyclopropylcarbonyl)pyrrolidin-3-yl]methyl}-5-[3′-(cyclopropylsulfonyl)-3-fluorobiphenyl-4-yl]-4,6-diazaspiro[2.4]hept-4-en-7-one], for which the IC50 is above 10000 nM with A2780 ovarian cells [1]; 1740 nM in assay [2]; 631 nM in assay [3]; 1380 nM in assay [4]; 1950 nM in the assay on A2780 ovarian cells [5]; 5130 nM in assay [6]. For the same molecule, the inhibition at 10 µM in assay [3] turned out to be 91%.

As to `O=C(C1CC1)N1CC(CN2C(=O)C3(CC3)N=C2c2ccc(-c3nc4ccc(Cl)cc4o3)cc2F)C1` [compound 649, 5-[4-(6-Chloro-1,3-benzoxazol-2-yl)-2-fluorophenyl]-6-{[1-(cyclopropylcarbonyl)azetidin-3-yl]methyl}-4,6-diazaspiro[2.4]hept-4-en-7-one], the IC50 in the assay on A2780 ovarian cells [1] is 7410 nM; in assay [2], 437 nM; in assay [3], 158 nM; in assay [4], 372 nM; with A2780 ovarian cells [5], 200 nM; in assay [6], 1740 nM. For the same molecule, the inhibition at 10 µM in assay [3] was 97%.
